For orientation: inhibition means how much of the control response was suppressed. Usually IC50 stands for the concentration at which inhibition is half-maximal. Lower therefore signals greater potency.

Calls of active or inactive are those of the source. The calls are words filed in the database; no cut-off is given here. Some results are limits rather than exact numbers.

28 compounds from ChEMBL document CHEMBL2390956, “Design, synthesis and evaluation of flavonoid derivatives as potential multifunctional acetylcholinesterase inhibitors against Alzheimer's disease” (Bioorg Med Chem Lett, 2013) can be followed below.

The target in assay [1] is Amyloid-beta precursor protein (Homo sapiens) (UniProt P05067). The assay is described as follows: Inhibition of amyloid beta (1 to 42) (unknown origin) aggregation at 20 uM by thioflavin T based fluorometric assay.
Sequence of Amyloid-beta precursor protein (Homo sapiens) (P05067 whole entry): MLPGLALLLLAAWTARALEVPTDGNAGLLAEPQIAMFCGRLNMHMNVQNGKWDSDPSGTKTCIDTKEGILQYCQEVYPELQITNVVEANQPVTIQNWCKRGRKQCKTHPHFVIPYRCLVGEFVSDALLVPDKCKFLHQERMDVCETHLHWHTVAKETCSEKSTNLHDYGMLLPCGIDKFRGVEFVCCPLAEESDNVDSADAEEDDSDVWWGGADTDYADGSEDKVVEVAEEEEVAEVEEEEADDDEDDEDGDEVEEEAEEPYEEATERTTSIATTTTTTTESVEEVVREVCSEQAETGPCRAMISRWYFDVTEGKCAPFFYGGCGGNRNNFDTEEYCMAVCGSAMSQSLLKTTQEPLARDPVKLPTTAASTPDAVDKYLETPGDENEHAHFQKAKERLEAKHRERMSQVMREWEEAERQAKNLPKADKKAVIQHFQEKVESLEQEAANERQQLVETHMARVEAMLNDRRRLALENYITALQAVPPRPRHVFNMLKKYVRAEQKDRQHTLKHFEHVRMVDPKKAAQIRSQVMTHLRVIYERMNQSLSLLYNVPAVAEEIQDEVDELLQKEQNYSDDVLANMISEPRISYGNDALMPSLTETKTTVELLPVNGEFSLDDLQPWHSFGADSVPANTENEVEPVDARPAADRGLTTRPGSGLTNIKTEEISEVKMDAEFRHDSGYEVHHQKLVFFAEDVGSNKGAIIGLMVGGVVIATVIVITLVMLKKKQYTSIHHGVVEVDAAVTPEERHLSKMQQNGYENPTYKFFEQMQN
The target in assay [2] is Cholinesterase (Equus caballus, UniProt P81908).
Sequence of Cholinesterase (P81908 whole entry): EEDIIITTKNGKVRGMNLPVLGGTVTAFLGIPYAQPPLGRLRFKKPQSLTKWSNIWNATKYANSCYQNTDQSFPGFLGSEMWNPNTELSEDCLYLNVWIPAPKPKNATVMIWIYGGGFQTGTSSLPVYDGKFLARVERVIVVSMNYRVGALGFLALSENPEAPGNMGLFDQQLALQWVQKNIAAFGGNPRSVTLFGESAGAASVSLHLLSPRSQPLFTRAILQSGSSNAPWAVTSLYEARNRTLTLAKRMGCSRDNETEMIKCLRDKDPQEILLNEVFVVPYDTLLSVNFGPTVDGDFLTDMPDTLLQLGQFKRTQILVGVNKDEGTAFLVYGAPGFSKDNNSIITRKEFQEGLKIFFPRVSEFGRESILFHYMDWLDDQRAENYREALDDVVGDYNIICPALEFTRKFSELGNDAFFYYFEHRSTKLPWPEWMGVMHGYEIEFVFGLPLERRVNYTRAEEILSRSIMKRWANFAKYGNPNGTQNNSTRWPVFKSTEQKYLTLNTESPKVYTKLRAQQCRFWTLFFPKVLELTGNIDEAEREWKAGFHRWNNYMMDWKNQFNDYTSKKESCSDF
Description: Inhibition of equine serum BuChE using S-butyrylthiocholine iodide as substrate incubated for 6 mins prior to substrate addition measured after 60 to 180 secs by Ellman's method
The target in assay [3] is Acetylcholinesterase (Electrophorus electricus, UniProt O42275).
Sequence of Acetylcholinesterase (O42275 whole entry): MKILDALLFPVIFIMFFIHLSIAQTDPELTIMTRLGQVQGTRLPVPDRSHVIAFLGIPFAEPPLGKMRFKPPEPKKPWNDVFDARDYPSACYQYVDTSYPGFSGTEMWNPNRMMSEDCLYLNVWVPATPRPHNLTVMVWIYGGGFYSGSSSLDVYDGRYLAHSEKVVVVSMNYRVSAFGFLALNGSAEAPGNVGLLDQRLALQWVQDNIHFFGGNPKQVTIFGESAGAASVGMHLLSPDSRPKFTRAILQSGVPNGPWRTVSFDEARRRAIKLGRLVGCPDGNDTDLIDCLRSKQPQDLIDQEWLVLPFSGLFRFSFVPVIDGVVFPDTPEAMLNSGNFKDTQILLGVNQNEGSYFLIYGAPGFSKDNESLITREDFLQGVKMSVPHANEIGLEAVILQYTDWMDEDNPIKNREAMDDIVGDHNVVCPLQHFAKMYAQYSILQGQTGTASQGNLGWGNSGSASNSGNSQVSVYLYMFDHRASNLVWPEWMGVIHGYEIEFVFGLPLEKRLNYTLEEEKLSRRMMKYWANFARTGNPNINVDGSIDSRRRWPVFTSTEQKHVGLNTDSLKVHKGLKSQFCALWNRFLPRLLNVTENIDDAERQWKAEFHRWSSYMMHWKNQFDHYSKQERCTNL
Description: Inhibition of electric eel AChE using acetylthiocholine iodide as substrate incubated for 6 mins prior to substrate addition measured after 60 to 180 secs by Ellman's method
Assay [4] has as its target Acetylcholinesterase (Electrophorus electricus) (UniProt O42275). The assay is described as follows: Ratio of tacrine IC50 to compound IC50 for electric eel AChE.
Assay [5] has the same target. The assay is described as follows: Ratio of galanthamine IC50 to compound IC50 for electric eel AChE.
Assay [6] in a line: Metal chelating activity of the compound assessed as formation of copper complex at 35 uM by UV-vis spectrometry. Type of assay: functional.
Assay [7] in a line: Metal chelating activity of the compound assessed as formation of iron complex at 35 uM by UV-vis spectrometry. Format: functional.
The target in assay [8] is Acetylcholinesterase (Homo sapiens) (UniProt P22303). The assay is described as follows: Mixed inhibition of AChE (unknown origin) using ATC as substrate assessed as acetylcholine hydrolysis incubated 15 mins prior to substrate addition by Lineweaver-Burk plot analysis.
Sequence of Acetylcholinesterase (Homo sapiens) (P22303 whole entry): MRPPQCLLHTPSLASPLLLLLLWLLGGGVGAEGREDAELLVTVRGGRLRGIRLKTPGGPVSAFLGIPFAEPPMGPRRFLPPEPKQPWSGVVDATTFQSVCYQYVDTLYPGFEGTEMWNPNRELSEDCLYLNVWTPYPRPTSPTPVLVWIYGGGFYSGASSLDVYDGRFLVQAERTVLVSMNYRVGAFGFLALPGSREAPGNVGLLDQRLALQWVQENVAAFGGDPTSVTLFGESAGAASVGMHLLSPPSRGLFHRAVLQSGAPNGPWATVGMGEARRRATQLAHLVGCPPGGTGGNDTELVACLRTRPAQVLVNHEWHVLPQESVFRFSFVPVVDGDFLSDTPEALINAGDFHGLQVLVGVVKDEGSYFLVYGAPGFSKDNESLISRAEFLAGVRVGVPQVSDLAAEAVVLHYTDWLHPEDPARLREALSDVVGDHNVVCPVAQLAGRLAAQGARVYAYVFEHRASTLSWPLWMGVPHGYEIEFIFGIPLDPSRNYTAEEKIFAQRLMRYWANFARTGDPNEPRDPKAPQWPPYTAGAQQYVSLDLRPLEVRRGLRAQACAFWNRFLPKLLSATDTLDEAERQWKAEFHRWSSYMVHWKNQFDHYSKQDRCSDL

Sequence of Acetylcholinesterase (Electrophorus electricus) (O42275 24-633 limits assumed): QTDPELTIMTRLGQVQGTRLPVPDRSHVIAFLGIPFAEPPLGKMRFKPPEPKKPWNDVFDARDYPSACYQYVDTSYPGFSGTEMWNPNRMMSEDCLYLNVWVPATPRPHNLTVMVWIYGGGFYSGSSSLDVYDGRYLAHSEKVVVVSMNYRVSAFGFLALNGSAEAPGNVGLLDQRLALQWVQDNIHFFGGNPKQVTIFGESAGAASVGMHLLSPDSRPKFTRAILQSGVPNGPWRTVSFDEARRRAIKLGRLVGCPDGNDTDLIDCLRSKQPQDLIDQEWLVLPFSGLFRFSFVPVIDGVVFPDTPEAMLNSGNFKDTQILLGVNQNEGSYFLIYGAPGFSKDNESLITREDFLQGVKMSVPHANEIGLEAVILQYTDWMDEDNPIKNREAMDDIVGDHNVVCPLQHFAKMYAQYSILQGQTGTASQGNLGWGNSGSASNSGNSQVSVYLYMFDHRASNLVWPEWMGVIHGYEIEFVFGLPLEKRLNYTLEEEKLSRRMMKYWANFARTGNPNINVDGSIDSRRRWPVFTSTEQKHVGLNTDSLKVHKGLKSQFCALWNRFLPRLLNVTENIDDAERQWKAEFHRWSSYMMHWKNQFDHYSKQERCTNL

Take `Cc1c(OCCN2CCC(O)CC2)ccc2c(=O)cc(-c3ccccc3)oc12`: in assay [1], the inhibition was found to be 26.9%. In addition, the results for the IC50 in assay [2] and in assay [3] were 3.21 µM and 1.83 µM, respectively.

In assay [1], `Cc1c(OCCCCN2CCCC2)ccc2c(=O)cc(-c3ccccc3)oc12` came in with an inhibition of 21.8%. In addition, the values for the IC50 in assay [2] and in assay [3] were 5.7 µM and 0.238 µM, respectively.

`Cc1c(OCCCCCCN2CCCCC2C)ccc2c(=O)cc(-c3ccccc3)oc12` (stereo unspecified) came in with an inhibition in assay [1] of 43.2%. The values for the IC50 in assay [2] and in assay [3] were 3.74 µM and 1.89 µM, respectively.

Regarding `Cc1c(OCCCCN2CCOCC2)ccc2c(=O)cc(-c3ccccc3)oc12`, in assay [1], the inhibition is 20.4%. Further, the IC50 in assay [2] is > 100 µM; in assay [3] it was 2.88 µM.

Turning to `Cc1c(O)ccc2c(=O)cc(-c3ccccc3)oc12`, the IC50 was > 100 µM in assay [2] and 87.1 µM in assay [3].

In assay [1], `CCN(CC)CCCCCOc1ccc2c(=O)cc(-c3ccccc3)oc2c1C` registered an inhibition of 40.9%. Besides, the IC50 in assay [2] is > 100 µM; in assay [3], 0.264 µM.

Consider `COC(=O)[C@@H]1CCCN1CCCCCOc1ccc2c(=O)cc(-c3ccccc3)oc2c1C`, for which the IC50 in assay [2] was 3.93 µM; in assay [3], 19.6 µM.

On to `CCN(CC)CCCCOc1ccc2c(=O)cc(-c3ccccc3)oc2c1C`, for which the figures for the Ratio IC50 in assay [4] and in assay [5] were 2 and 20, respectively. Moreover, the result in assay [6] and in assay [7] was Active. In addition, the inhibition in assay [1] is 39%. The inhibition entry in assay [8] was “Active”. Further, the values for the IC50 in assay [2] and in assay [3] were 4.82 µM and 0.13 µM, respectively.

Turning to `COC(=O)[C@@H]1CCCN1CCCCOc1ccc2c(=O)cc(-c3ccccc3)oc2c1C`, the values for the IC50 in assay [2] and in assay [3] were 3.82 µM and 25.3 µM, respectively.

As for `Cc1c(OCCCCN2CCN(C)CC2)ccc2c(=O)cc(-c3ccccc3)oc12`, the inhibition in assay [1] was determined as 31.1%. Further, the IC50 worked out at 5.75 µM in assay [2] and 1.66 µM in assay [3].

Take `Cc1c(OCCN2CCCCC2C)ccc2c(=O)cc(-c3ccccc3)oc12` (stereo unspecified): the inhibition in assay [1] came to 30.5%. Moreover, the values for the IC50 in assay [2] and in assay [3] were > 100 µM and 2.1 µM, respectively.

For `Cc1c(OCCCCN2CCCCC2C)ccc2c(=O)cc(-c3ccccc3)oc12` (stereo unspecified), the inhibition in assay [1] worked out at 37.3%. Further, the IC50 was > 100 µM in assay [2] and 0.225 µM in assay [3].

Regarding `Cc1c(OCCCCN2CCCCC2)ccc2c(=O)cc(-c3ccccc3)oc12`, the inhibition in assay [1] was determined as 37.5%. Besides, the IC50 is > 100 µM in assay [2] and 0.234 µM in assay [3].

`Cc1c(OCCCCCN(C)C)ccc2c(=O)cc(-c3ccccc3)oc12` gave an inhibition in assay [1] of 37.9%. Further, the figures for the IC50 in assay [2] and in assay [3] were 2.54 µM and 0.21 µM, respectively.

`Cc1c(OCCCCCN2CCN(C)CC2)ccc2c(=O)cc(-c3ccccc3)oc12` came in with an inhibition in assay [1] of 39.9%. Further, the results for the IC50 in assay [2] and in assay [3] were 4.87 µM and 1.87 µM, respectively.

For the compound `Cc1c(OCCCCCN2CCOCC2)ccc2c(=O)cc(-c3ccccc3)oc12`, in assay [1], the inhibition turned out to be 24.6%. Further, the IC50 in assay [2] was > 100 µM; in assay [3] it was 8.63 µM.

For the compound `Cc1c(OCCCCCN2CCCCC2C)ccc2c(=O)cc(-c3ccccc3)oc12` (stereo unspecified), in assay [1], the inhibition turned out to be 36.7%. Further, the IC50 in assay [2] was found to be 2.77 µM; in assay [3] it was 0.216 µM.

`Cc1c(OCCCCCN2CCC(O)CC2)ccc2c(=O)cc(-c3ccccc3)oc12` returned an inhibition in assay [1] of 37.4%. The IC50 worked out at 4.85 µM in assay [2] and 0.604 µM in assay [3].

With `Cc1c(OCCCCCCN2CCCC2)ccc2c(=O)cc(-c3ccccc3)oc12`, the inhibition in assay [1] is 38.1%. Also, the IC50 in assay [2] came out at 3.28 µM; in assay [3], 0.764 µM.

`Cc1c(OCCCCCCN2CCC(O)CC2)ccc2c(=O)cc(-c3ccccc3)oc12`: in assay [1], the inhibition is 39%. For the same compound, the IC50 in assay [2] stood at 3.93 µM; in assay [3], 3.15 µM.

For the compound `Cc1c(OCCN2CCCC2)ccc2c(=O)cc(-c3ccccc3)oc12`, the inhibition in assay [1] was 42%. The IC50 in assay [2] is 2.71 µM; in assay [3], 2.04 µM.

In assay [1], `Cc1c(OCCCCN(C)C)ccc2c(=O)cc(-c3ccccc3)oc12` gave an inhibition of 34.3%. Moreover, the IC50 in assay [2] was > 100 µM; in assay [3] it was 0.328 µM.

For the compound `Cc1c(OCCCCCN2CCCC2)ccc2c(=O)cc(-c3ccccc3)oc12`, the inhibition in assay [1] amounted to 39.3%. For the same compound, the results for the IC50 in assay [2] and in assay [3] were 1.91 µM and 0.243 µM, respectively.

In assay [1], `Cc1c(OCCCN2CCCC2)ccc2c(=O)cc(-c3ccccc3)oc12` registered an inhibition of 27.1%. Further, the IC50 is 2.78 µM in assay [2] and 0.952 µM in assay [3].

`Cc1c(OCCCN2CCC(O)CC2)ccc2c(=O)cc(-c3ccccc3)oc12` returned an inhibition in assay [1] of 21.4%. Moreover, the IC50 in assay [2] is 4.12 µM; in assay [3], 2.94 µM.

In assay [1], `Cc1c(OCCCCN2CCC(O)CC2)ccc2c(=O)cc(-c3ccccc3)oc12` yielded an inhibition of 22.1%. Besides, the IC50 was > 100 µM in assay [2] and 0.607 µM in assay [3].

For the compound `Cc1c(OCCCCCN2CCCCC2)ccc2c(=O)cc(-c3ccccc3)oc12`, the inhibition in assay [1] was 41.7%. Further, the IC50 in assay [2] is 1.41 µM; in assay [3] it was 0.329 µM.

In the case of `Cc1c(OCCCN2CCCCC2C)ccc2c(=O)cc(-c3ccccc3)oc12` (stereo unspecified), the inhibition in assay [1] was 41.7%. In addition, the IC50 in assay [2] turned out to be 5.84 µM; in assay [3], 0.59 µM.
